This is an account of results in patent US20240067651A1 (Biohaven Therapeutics Ltd., priority 2019, published 2024).

Data set [1] is described as follows: Caco-2 Permeability Assay. Format: in vitro ADME, human. As to conditions: human, Caco-2, pH 7.4. The gist of the method: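 Caco-2 monolayers cultured 21 days (TEER >600 […]); test article at 10 μM in HBSS/HEPES pH 7.4 transport medium, dosed apical or basolateral, ±Pgp inhibitor. Incubated 90 min at 37 °C; both compartments quantified by LC-MS/MS. Papp (A→B, B→A), efflux ratio and % recovery calculated.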
(Caco-2 monolayers are a common model of the intestinal barrier.)

A short description of data set [2]: Stability in Simulated Intestinal Fluid (SIF). Also noted: key: % parent compound remaining relative to 0-minute sample. The following applies: % remaining @ 1 h. In kind it is in vitro ADME. The procedure, abridged: (§1)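 Stability was tested at 37° C in pepsin-supplemented gastric fluid, pH 1.2, and pancreatin-supplemented intestinal fluid, pH 6.8, using 2 μg/mL final compound over 0–60 minutes. Remaining parent was quantified by LC-MS/MS and expressed as a percentage of time zero.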

Data set [3] in a line: Stability in Simulated Gastric Fluid (SGF). Format: in vitro ADME. The arrangement: key: % parent compound remaining relative to 0-minute sample. The following applies: % remaining @ 1 h. The gist of the method: as §1
The nature of the next data set: Plasma Stability. Format: in vitro ADME, human. The following applies: % remaining @ 1 h. The procedure, abridged:
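Compounds incubated at 1 μM in fresh human plasma for 1 hour at 37° C, then protein-precipitated with acetonitrile/formic acid containing internal standard. Remaining parent measured by LC-MS/MS in triplicate, expressed as percent of control remaining.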

The term Papp denotes a coefficient for how fast a substance crosses the barrier.

A value given as a limit tells only on which side of the number the result lay.

Compound `CC(C)OCCn1c(SCOC(=O)[C@@H](N)Cc2ccccc2)nc(=O)c2c1ccn2COC(=O)[C@@H](N)Cc1ccccc1.O=C(O)C(F)(F)F.O=C(O)C(F)(F)F` [Example 309, bis(trifluoroacetic acid) {[5-({[(2S)-2-amino-3-phenylpropanoyl]oxy}methyl)-4-oxo-1-[2-(propan-2-yloxy)ethyl]-1H,4H,5H-pyrrolo[3,2-d]pyrimidin-2-yl]sulfanyl}methyl (2S)-2-amino-3-phenylpropanoate] yielded an apparent permeability (Papp) at 90 min, 10 µM in data set [1] of less than 0.123 ×10⁻⁶ cm/s. Moreover, the SIF in data set [2] is recorded as 86% @ 1 h. In data set [3], the SGF was 98% @ 1 h. For the same compound, the “human Plasma stability” value in “Plasma Stability” is on record as 5% @ 1 h.

In the case of `CC(C)OCCn1c(=S)[nH]c(=O)c2c1ccn2COC(=O)[C@H](N)Cc1ccccc1.O=C(O)C(F)(F)F` [Example 311, trifluoroacetic acid {4-oxo-1-[2-(propan-2-yloxy)ethyl]-2-sulfanylidene-1H,2H,3H,4H,5H-pyrrolo[3,2-d]pyrimidin-5-yl}methyl (2R)-2-amino-3-phenylpropanoate], the Papp at 90 min, 10 µM in data set [1] was found to be 5.44 ×10⁻⁶ cm/s. The SIF in data set [2] was 7% @ 1 h. In data set [3], the SGF was 98% @ 1 h. For the same compound, the “human Plasma stability” value in the data set “Plasma Stability” turned out to be 4% @ 1 h.

In turn, `CC(C)OCCn1c(=S)n(COC(=O)[C@H](N)Cc2ccccc2)c(=O)c2c1ccn2COC(=O)[C@H](N)Cc1ccccc1.O=C(O)C(F)(F)F.O=C(O)C(F)(F)F` [Example 313, bis(trifluoroacetic acid) [3-({[(2R)-2-amino-3-phenylpropanoyl]oxy}methyl)-4-oxo-1-[2-(propan-2-yloxy)ethyl]-2-sulfanylidene-1H,2H,3H,4H,5H-pyrrolo[3,2-d]pyrimidin-5-yl]methyl (2R)-2-amino-3-phenylpropanoate] gave a Papp at 90 min, 10 µM in data set [1] of 0.49 ×10⁻⁶ cm/s. Also, the SIF in data set [2] was 51% @ 1 h. Also, the SGF in data set [3] is 88% @ 1 h. Further, in “Plasma Stability”, the “human Plasma stability” value was 99% @ 1 h.

The compound `CC(C)C[C@H](NC(=O)OC(C)(C)C)C(=O)OCn1c(=O)c2c(ccn2COC(=O)[C@H](CC(C)C)NC(=O)OC(C)(C)C)n(CCOC(C)C)c1=S` [Example 316, [3-({[(2S)-2-{[(tert-butoxy)carbonyl]amino}-4-methylpentanoyl]oxy}methyl)-4-oxo-1-[2-(propan-2-yloxy)ethyl]-2-sulfanylidene-1H,2H,3H,4H,5H-pyrrolo [3,2-d]pyrimidin-5-yl]methyl (2S)-2-{[(tert-butoxy)carbonyl]amino}-4-methylpentanoate] had a Papp at 90 min, 10 µM in data set [1] of 7.6 ×10⁻⁶ cm/s. In data set [2], the SIF is 6%@ 1 h. In data set [3], the SGF is on record as 99%@ 1 h. Further, in “Plasma Stability”, the “human Plasma stability” value is given as 37%@ 1 h.

Regarding `CC(C)C[C@@H](NC(=O)OC(C)(C)C)C(=O)OCn1ccc2c1c(=O)[nH]c(=S)n2CCOC(C)C` [Example 317, {4-oxo-1-[2-(propan-2-yloxy)ethyl]-2-sulfanylidene-1H,2H,3H,4H,5H-pyrrolo[3,2-d]pyrimidin-5-yl}methyl (2R)-2-{[(tert-butoxy)carbonyl]amino}-4-methylpentanoate], the Papp at 90 min, 10 µM in data set [1] was determined as 0.093 ×10⁻⁶ cm/s. Also, in data set [2], the SIF is on record as 30%@ 1 h. Also, the SGF in data set [3] is 56%@ 1 h. The “human Plasma stability” value in “Plasma Stability” is reported as 99%@ 1 h.

In data set [1], `CC(C)C[C@@H](NC(=O)OC(C)(C)C)C(=O)OCSc1nc(=O)c2c(ccn2COC(=O)[C@@H](CC(C)C)NC(=O)OC(C)(C)C)n1CCOC(C)C` [Example 318, {[5-({[(2R)-2-{[(tert-butoxy)carbonyl]amino}-4-methylpentanoyl]oxy}methyl)-4-oxo-1-[2-(propan-2-yloxy)ethyl]-1H,4H,5H-pyrrolo[3,2-d]pyrimidin-2-yl]sulfanyl}methyl (2R)-2-{[(tert-butoxy)carbonyl]amino}-4-methylpentanoate] registered a Papp at 90 min, 10 µM of 25.4 ×10⁻⁶ cm/s. For the same compound, in data set [2], the SIF is listed as 2%@ 1 h. In addition, in data set [3], the SGF is listed as 81%@ 1 h. Also, in “Plasma Stability”, the “human Plasma stability” value is on record as 85%@ 1 h.

`CC(C)C[C@@H](NC(=O)OC(C)(C)C)C(=O)OCn1c(=O)c2c(ccn2COC(=O)[C@@H](CC(C)C)NC(=O)OC(C)(C)C)n(CCOC(C)C)c1=S` [Example 319, [3-({[(2R)-2-{[(tert-butoxy)carbonyl]amino}-4-methylpentanoyl]oxy}methyl)-4-oxo-1-[2-(propan-2-yloxy)ethyl]-2-sulfanylidene-1H,2H,3H,4H,5H-pyrrolo[3,2-d]pyrimidin-5-yl]methyl (2R)-2-{[(tert-butoxy)carbonyl]amino}-4-methylpentanoate] had a Papp at 90 min, 10 µM in data set [1] of 10.5 ×10⁻⁶ cm/s. The SIF in data set [2] is 0%@ 1 h. Also, the SGF in data set [3] is listed as 34%@ 1 h. The “human Plasma stability” value in the data set “Plasma Stability” is recorded as 42%@ 1 h.

As for `CC(C)C[C@H](N)C(=O)OCn1ccc2c1c(=O)[nH]c(=S)n2CCOC(C)C.O=C(O)C(F)(F)F` [Example 320, trifluoroacetic acid {4-oxo-1-[2-(propan-2-yloxy)ethyl]-2-sulfanylidene-1H,2H,3H,4H,5H-pyrrolo[3,2-d]pyrimidin-5-yl}methyl (2S)-2-amino-4-methylpentanoate], the Papp at 90 min, 10 µM in data set [1] is less than 0.259 ×10⁻⁶ cm/s. Besides, the SIF in data set [2] was 42%@ 1 h. In addition, the SGF in data set [3] is 48%@ 1 h. Also, in “Plasma Stability”, the “human Plasma stability” value was 98%@ 1 h.

In turn, `CC(C)C[C@H](N)C(=O)OCSc1nc(=O)c2c(ccn2COC(=O)[C@@H](N)CC(C)C)n1CCOC(C)C.O=C(O)C(F)(F)F.O=C(O)C(F)(F)F` [Example 321, bis(trifluoroacetic acid) {[5-({[(2S)-2-amino-4-methylpentanoyl]oxy}methyl)-4-oxo-1-[2-(propan-2-yloxy)ethyl]-1H,4H,5H-pyrrolo[3,2-d]pyrimidin-2-yl]sulfanyl}methyl (2S)-2-amino-4-methylpentanoate] came in with a Papp at 90 min, 10 µM in data set [1] of less than 0.365 ×10⁻⁶ cm/s. For the same compound, the SIF in data set [2] is 2%@ 1 h. Moreover, the SGF in data set [3] was 92%@ 1 h. Besides, in “Plasma Stability”, the “human Plasma stability” value is 1%@ 1 h.

In data set [1], `CC(C)C[C@H](N)C(=O)OCn1c(=O)c2c(ccn2COC(=O)[C@@H](N)CC(C)C)n(CCOC(C)C)c1=S.O=C(O)C(F)(F)F.O=C(O)C(F)(F)F` [Example 322, bis(trifluoroacetic acid) [3-({[(2S)-2-amino-4-methylpentanoyl]oxy}methyl)-4-oxo-1-[2-(propan-2-yloxy)ethyl]-2-sulfanylidene-1H,2H,3H,4H,5H-pyrrolo[3,2-d]pyrimidin-5-yl]methyl (2S)-2-amino-4-methylpentanoate] gave an apparent permeability (Papp) at 90 min, 10 µM of less than 0.106 ×10⁻⁶ cm/s. Besides, the SIF in data set [2] is reported as 61%@ 1 h. Further, the SGF in data set [3] is 56%@ 1 h. Moreover, in “Plasma Stability”, the “human Plasma stability” value is reported as 64%@ 1 h.

In the case of `CC(C)C[C@H](N)C(=O)OCn1ccc2c1c(=O)n(CO)c(=S)n2CCOC(C)C.O=C(O)C(F)(F)F` [Example 323, trifluoroacetic acid [3-(hydroxymethyl)-4-oxo-1-[2-(propan-2-yloxy)ethyl]-2-sulfanylidene-1H,2H,3H,4H,5H-pyrrolo[3,2-d]pyrimidin-5-yl]methyl (2S)-2-amino-4-methylpentanoate], the Papp at 90 min, 10 µM in data set [1] was less than 0.355 ×10⁻⁶ cm/s. For the same compound, the SIF in data set [2] is on record as 52%@ 1 h. Also, the SGF in data set [3] is 95%@ 1 h. Moreover, the “human Plasma stability” value in “Plasma Stability” is 12%@ 1 h.

The compound `CC(C)C[C@@H](N)C(=O)OCSc1nc(=O)c2c(ccn2COC(=O)[C@H](N)CC(C)C)n1CCOC(C)C.O=C(O)C(F)(F)F.O=C(O)C(F)(F)F` [Example 325, bis(trifluoroacetic acid) {[5-({[(2R)-2-amino-4-methylpentanoyl]oxy}methyl)-4-oxo-1-[2-(propan-2-yloxy)ethyl]-1H,4H,5H-pyrrolo[3,2-d]pyrimidin-2-yl]sulfanyl}methyl (2R)-2-amino-4-methylpentanoate] came in with a Papp at 90 min, 10 µM in data set [1] of 0.908 ×10⁻⁶ cm/s. In addition, in data set [2], the SIF is 3%@ 1 h. In addition, the SGF in data set [3] was 99%@ 1 h. Also, the “human Plasma stability” value in “Plasma Stability” was 1%@ 1 h.

`CC(C)C[C@@H](N)C(=O)OCn1c(=O)c2c(ccn2COC(=O)[C@H](N)CC(C)C)n(CCOC(C)C)c1=S.O=C(O)C(F)(F)F.O=C(O)C(F)(F)F` [Example 326, bis(trifluoroacetic acid) [3-({[(2R)-2-amino-4-methylpentanoyl]oxy}methyl)-4-oxo-1-[2-(propan-2-yloxy)ethyl]-2-sulfanylidene-1H,2H,3H,4H,5H-pyrrolo [3,2-d]pyrimidin-5-yl]methyl (2R)-2-amino-4-methylpentanoate] had a Papp at 90 min, 10 µM in data set [1] of less than 0.338 ×10⁻⁶ cm/s. Also, in data set [2], the SIF is reported as 9%@ 1 h. In addition, the SGF in data set [3] is reported as 97%@ 1 h. For the same compound, in the data set “Plasma Stability”, the “human Plasma stability” value is recorded as 17%@ 1 h.

For the compound `CC(C)C[C@@H](N)C(=O)OCn1ccc2c1c(=O)n(CO)c(=S)n2CCOC(C)C.O=C(O)C(F)(F)F` [Example 327, trifluoroacetic acid [3-(hydroxymethyl)-4-oxo-1-[2-(propan-2-yloxy)ethyl]-2-sulfanylidene-1H,2H,3H,4H,5H-pyrrolo[3,2-d]pyrimidin-5-yl]methyl (2R)-2-amino-4-methylpentanoate], the Papp at 90 min, 10 µM in data set [1] was less than 1.03 ×10⁻⁶ cm/s. In addition, the SIF in data set [2] was 49%@ 1 h. In addition, the SGF in data set [3] is given as 100%@ 1 h. In addition, the “human Plasma stability” value in “Plasma Stability” was 21%@ 1 h.
